Assay results: patent US11213561B2, “Herbal methods for the improvement of sleep, social interaction, concern or worry” (Rox IP Pty Ltd., priority 2017, dated 2022)

Test system: individuals with poor sleep, anxiety, worry
Experiment: Individual cases treated with the four herb combination
Format: in vivo, human
Details: third case; patient history, prostate medication
Excerpt: For example, the four herb combination was used to treat three separate individuals, each at a different age with varying problems. The following are cases of how the four herb combination has improved the sleep onset, sleep maintenance, and energy of these individuals. […] They took Codeine and Paracetamol for 3 months, gradually reducing the dose whilst undergoing physiotherapy. The physiotherapy continued for approximately 6 months until the arm was fully functional and pain-free. One year after the original injury, their sleep was still impaired with onset and maintenance insomnia. The person stated that they “dreaded bedtime” and the hours they would be lying awake in bed. They worried during the day, with the worry increasing in the evening. […] In addition, they had changed their lifestyle avoiding commitments in the morning, and not socializing at night as they were worried that the stimulation would further impair their sleep. After 2 weeks on the herbal combination they noticed improvements. At 1 month, they were falling asleep within 20 minutes (versus over an hour before starting the treatment) and was waking up only once per night (versus 3 times or more before starting treatment). […] Their pattern was to readily fall asleep but then wake up 6 times throughout the night which led to urinating half the time, and then having difficulty returning to sleep. […]

`CCOc1ccccc1OCCN[C@H](C)Cc1ccc(OC)c(S(N)(=O)=O)c1` [Flomax, Tamsulosin] was tested, and the reducing night-time urination was “some improvement” and the waking at nights was “not reduced”.
